Test results as given in patent US12590083B2, “Inhibitors of spinster homolog 2 (SPNS2) for use in therapy” (University of Virginia Patent Foundation, priority 2019, dated 2026).
Where a name gives a salt, the structure may show the parent alone.

Molecular target: T1, human SPNS2 (Homo sapiens, UniProt Q8IVW8)
T1 construct: expressed in transfected cells; host or cells: Saccharomyces cerevisiae strain with forced expression of a mammalian SphK and human SPNS2
T1 sequence (Q8IVW8 1-549): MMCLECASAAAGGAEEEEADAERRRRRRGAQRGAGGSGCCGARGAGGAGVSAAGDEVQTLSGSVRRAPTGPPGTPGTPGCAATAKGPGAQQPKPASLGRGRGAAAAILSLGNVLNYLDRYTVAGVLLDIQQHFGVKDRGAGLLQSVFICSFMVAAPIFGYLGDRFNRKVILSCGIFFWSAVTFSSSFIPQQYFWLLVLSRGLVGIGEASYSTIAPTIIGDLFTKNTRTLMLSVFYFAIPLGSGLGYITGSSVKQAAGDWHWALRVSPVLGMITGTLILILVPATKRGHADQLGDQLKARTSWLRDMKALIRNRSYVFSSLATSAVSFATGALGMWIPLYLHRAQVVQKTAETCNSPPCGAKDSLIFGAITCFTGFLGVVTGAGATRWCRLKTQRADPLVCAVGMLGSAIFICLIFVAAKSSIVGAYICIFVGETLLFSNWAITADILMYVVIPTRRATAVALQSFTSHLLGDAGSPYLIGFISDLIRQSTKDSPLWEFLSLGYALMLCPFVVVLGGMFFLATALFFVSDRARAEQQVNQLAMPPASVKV
Test: S1P transporter assay: growth of S. cerevisiae strain with forced expression of a mammalian SphK and human SPNS2
Type: cell-based
Details: in vitro inhibition of SPNS2; growth of S. cerevisiae strain expressing mammalian SphK and human SPNS2; compounds as their pharmaceutical salts
Description: Transporter assays are vectorial and, therefore, require measurement of the transported analyte in different compartments. The assay of S1P transporters is problematic because S1P is exported, but not imported, by SPNS2, which obviates measuring uptake of mass- or radio-labeled S1P into transporter-expressing cells.
To assay for SPNS2 inhibitor hits, we took advantage of the growth inhibitory effects of excessive levels of phosphorylated Long Chain Base (phospho-LCB) levels on the budding yeast, S. cerevisiae (Kharel Y, et al. Saccharomyces cerevisiae as a platform for assessing sphingolipid lipid kinase inhibitors. PLoS One 13, e0192179 (2018) PMC5908134). Yeast lack the desaturase that converts dihydroceramide to ceramide and, therefore, have neither sphingosine nor S1P. Rather, yeast have the reduced form, dihydrosphingosine, and the 4-hydroxyl analog, phytosphingosine and their respective phosphates. Like all eukaryotes, the yeast synthesizes (via LCB kinases (SphKs)) and degrades (via phospho-LCB lyase and phosphatase) phospho-LCBs, (dhS1P, phytoS1P). Yeast lack phospho-LCB transporters such as SPNS2, which are found only in vertebrates. To assess inhibition of SPNS2 in vitro, we used a strain of S. cerevisiae wherein expression of a mammalian SphK and human SPNS2 were forced. SPNS2 inhibitors decrease the growth of this strain. Table 2 below presents in vitro inhibition data against SPNS2 for exemplary compounds, presented here as their pharmaceutical salts, of the disclosure (A≤2 μM, B>2 μM).

IC50, > 2000 nM:
N=C(N)N1CCC[C@@H](c2nc(-c3ccc(OCCCc4ccccc4)c(C(F)(F)F)c3)no2)C1 [Compound 23j, (R)-3-(3-(4-(3-phenylpropoxy)-3-(trifluoromethyl)phenyl)-1,2,4-oxadiazol-5-yl)piperidine-1-carboximidamide hydrochloride]
CCCCCCCCNC(=O)c1ccc(-c2noc([C@@H]3CCN(C(=N)N)C3)n2)cc1 [Compound 40p, (R)-4-(5-(1-carbamimidoylpyrrolidin-3-yl)-1,2,4-oxadiazol-3-yl)-N-octylbenzamide hydrochloride]
C/C(=N\OCc1ccc(C(F)(F)F)cc1)c1ccc(-c2noc([C@@H]3CCNC3)n2)cc1 [Compound 38c, (R)-1-(4-(5-(pyrrolidin-3-yl)-1,2,4-oxadiazol-3-yl)phenyl)ethan-1-one O-(4-(trifluoromethyl)benzyl) oxime hydrochloride]
FC(F)(F)c1cc(-c2noc([C@@H]3CCCNC3)n2)ccc1OCCCc1ccccc1 [Compound 21j, (R)-3-(4-(3-phenylpropoxy)-3-(trifluoromethyl)phenyl)-5-(piperidin-3-yl)-1,2,4-oxadiazole hydrochloride]
CCCCCCCCCCc1ccc(-c2noc(C[C@@H]3CCNC3)n2)cc1C(F)(F)F [Compound 28g, (S)-3-(4-decyl-3-(trifluoromethyl)phenyl)-5-(pyrrolidin-3-ylmethyl)-1,2,4-oxadiazole hydrochloride]
CCCCNC(=O)c1ccc(-c2noc([C@@H]3CCNC3)n2)cc1 [Compound 38o, (R)—N-butyl-4-(5-(pyrrolidin-3-yl)-1,2,4-oxadiazol-3-yl)benzamide hydrochloride]
c1ccc(CCCOc2ccc(-c3noc(C4CNC4)n3)cc2)cc1 [Compound 13j, 5-(azetidin-3-yl)-3-(4-(3-phenylpropoxy)phenyl)-1,2,4-oxadiazole hydrochloride]
c1cc(N2CCOCC2)ncc1-c1noc([C@@H]2CCNC2)n1 [Compound 13d, (R)-4-(5-(5-(pyrrolidin-3-yl)-1,2,4-oxadiazol-3-yl)pyridin-2-yl)morpholine hydrochloride]
C/C(=N\OCc1ccc(C(F)(F)F)cc1)c1ccc(-c2noc([C@@H]3CCN(C(=N)N)C3)n2)cc1 [Compound 40c, (R)-3-(3-(4-(1-(((4-(trifluoromethyl)benzyl)oxy)imino)ethyl)phenyl)-1,2,4-oxadiazol-5-yl)pyrrolidine-1-carboximidamide hydrochloride]
N=C(N)N1CC(c2nc(-c3ccc(OCc4ccc(C(F)(F)F)cc4)c(C(F)(F)F)c3)no2)C1 [Compound 23g, 3-(3-(3-(trifluoromethyl)-4-((4-(trifluoromethyl)benzyl)oxy)phenyl)-1,2,4-oxadiazol-5-yl)azetidine-1-carboximidamide hydrochloride]
C/C(=N\OC(C)c1ccccc1)c1ccc(-c2noc([C@@H]3CCN(C(=N)N)C3)n2)cc1 (stereo partly drawn) [Compound 40f, hydrochloride]
CCCCc1ccc(Nc2ccc(-c3noc([C@@H]4CCNC4)n3)cn2)cc1 [Compound 13i, (R)—N-(4-butylphenyl)-5-(5-(pyrrolidin-3-yl)-1,2,4-oxadiazol-3-yl)pyridin-2-amine hydrochloride]
CCCCCCCCCCc1ccc(-c2noc([C@@H]3CCCN(C(=N)N)C3)n2)cc1 [Compound 7h, (R)-amino(3-(3-(4-decylphenyl)-1,2,4-oxadiazol-5-yl)piperidin-1-yl)methaniminium chloride]
N=C(N)N1CC[C@@H](c2nc(-c3ccc(Nc4cc(Br)ccc4Br)nc3)no2)C1 [Compound 15f, (R)-3-(3-(6-((2,5-dibromophenyl)amino)pyridin-3-yl)-1,2,4-oxadiazol-5-yl)pyrrolidine-1-carboximidamide hydrochloride]
Clc1ccccc1Nc1ccc(-c2noc([C@@H]3CCNC3)n2)cn1 [Compound 13e, (R)—N-(2-chlorophenyl)-5-(5-(pyrrolidin-3-yl)-1,2,4-oxadiazol-3-yl)pyridin-2-amine hydrochloride]
CCCCCCCCCCc1ccc(-c2noc([C@H]3CCCNC3)n2)cc1 [Compound 5f, (S)-3-(3-(4-decylphenyl)-1,2,4-oxadiazol-5-yl)piperidin-1-ium 2,2,2-trifluoroacetate]
N=C(N)N1CC[C@@H](c2nc(-c3ccc(Nc4ccccc4Cl)nc3)no2)C1 [Compound 15e, (R)-3-(3-(6-((2-chlorophenyl)amino)pyridin-3-yl)-1,2,4-oxadiazol-5-yl)pyrrolidine-1-carboximidamide hydrochloride]
CCCCCCCCCCc1ccc(-c2noc([C@H]3CCN(C(=N)N)C3)n2)cc1 [Compound 7e, (S)-amino(3-(3-(4-decylphenyl)-1,2,4-oxadiazol-5-yl)pyrrolidin-1-yl)methaniminium chloride]
CCCCCCCCCCCc1ccc(-c2noc(C3CN(C(=N)N)C3)n2)cc1 [Compound 7a, 3-(3-(4-undecylphenyl)-1,2,4-oxadiazol-5-yl)azetidine-1-carboximidamide hydrochloride]
CCCCCCCCCO/N=C(\C)c1ccc(-c2noc([C@@H]3CCNC3)n2)cc1 [Compound 38j, hydrochloride]

IC50, ≤ 2000 nM:
CCCCCCCOc1ccc2cc(-c3noc([C@@H]4CCN(C(=N)N)C4)n3)ccc2c1 [Compound 7kk, (R)-3-(3-(6-(heptyloxy)naphthalen-2-yl)-1,2,4-oxadiazol-5-yl)pyrrolidine-1-carboximidamide hydrochloride]
CCCCCCCCCc1ccc(-c2noc(C3CN(C(=N)N)C3)n2)cc1C(F)(F)F [Compound 30a, 3-(3-(4-nonyl-3-(trifluoromethyl)phenyl)-1,2,4-oxadiazol-5-yl)azetidine-1-carboximidamide hydrochloride]
CCCCCCCCCCOc1ccc(-c2noc([C@@H]3CCCN(C(=N)N)C3)n2)cc1C(F)(F)F [Compound 23f, (R)-3-(3-(4-(decyloxy)-3-(trifluoromethyl)phenyl)-1,2,4-oxadiazol-5-yl)piperidine-1-carboximidamide hydrochloride]
C/C(=N\OCc1ccc2c(c1)C(C)(C)CCC2(C)C)c1ccc(-c2noc([C@@H]3CCN(C(=N)N)C3)n2)cc1 [Compound 40h, (R)-3-(3-(4-(1-(((5,5,8,8-tetramethyl-5,6,7,8-tetrahydronaphthalen-2-yl)methoxy)imino)ethyl)phenyl)-1,2,4-oxadiazol-5-yl)pyrrolidine-1-carboximidamide hydrochloride]
CCCCCCCCCCc1ccc(-c2noc(C[C@@H]3CCN(C(=N)N)C3)n2)cc1 [Compound 7p, (S)-3-((3-(4-decylphenyl)-1,2,4-oxadiazol-5-yl)methyl)pyrrolidine-1-carboximidamide 2,2,2-trifluoroacetate]
CCCCCCCCCCc1ccc(-c2noc([C@H]3CCCN(C(=N)N)C3)n2)cc1 [Compound 7f, (S)-amino(3-(3-(4-decylphenyl)-1,2,4-oxadiazol-5-yl)piperidin-1-yl)methaniminium chloride]
CCCCCCCCCCc1ccc(-c2noc(C[C@@H]3CCCNC3)n2)cc1 [Compound 5q, (S)-3-(4-decylphenyl)-5-(piperidin-3-ylmethyl)-1,2,4-oxadiazole 2,2,2-trifluoroacetate]
CCCCCCCCCCc1ccc(-c2noc(C3CN(C(=N)N)C3)n2)cc1C(F)(F)F [Compound 30b, 3-(3-(4-decyl-3-(trifluoromethyl)phenyl)-1,2,4-oxadiazol-5-yl)azetidine-1-carboximidamide hydrochloride]
C/C(=N\OCCCCc1ccccc1)c1ccc(-c2noc([C@@H]3CCN(C(=N)N)C3)n2)cc1 [Compound 40a, (R)-3-(3-(4-(1-((4-phenylbutoxy)imino)ethyl)phenyl)-1,2,4-oxadiazol-5-yl)pyrrolidine-1-carboximidamide hydrochloride]
CCCCCCCCCCc1ccc(-c2noc(C[C@H]3CCNC3)n2)cc1 [Compound 5l, (R)-3-(4-decylphenyl)-5-(pyrrolidin-3-ylmethyl)-1,2,4-oxadiazole 2,2,2-trifluoroacetate]
